Experimental data as given in the supplement of paper PMC11281043.

Experiments:
Conditions in all cases: exposure: 6-8 hpf to 5 dpf, scored at 6 dpf
Danio rerio embryo/larva [1] = assay: max % larvae with craniofacial defects across tested concentrations; higher = more toxic; extreme values may be limits of the assay
Danio rerio embryo/larva [2] = assay: max % larvae with edema across tested concentrations; higher = more toxic; extreme values may be limits of the assay
Danio rerio embryo/larva [3] = assay: max % larvae with spinal defects across tested concentrations; higher = more toxic; extreme values may be limits of the assay
Danio rerio embryo/larva [4] = assay: max % larvae with tail defects across tested concentrations; higher = more toxic; extreme values may be limits of the assay
Danio rerio embryo/larva [5] = assay: max % larvae with pigmentation defects across tested concentrations; higher = more toxic
Danio rerio embryo/larva [6] = assay: max % larvae generally abnormal across tested concentrations; higher = more toxic; extreme values may be limits of the assay
Danio rerio embryo/larva [7] = assay: max % larvae with blood pooling across tested concentrations; higher = more toxic; extreme values may be limits of the assay
Danio rerio embryo/larva [8] = assay: max % larvae with uninflated swim bladder across tested concentrations; higher = more toxic; extreme values may be limits of the assay
Danio rerio embryo/larva [9] = assay: max % larvae with abnormal position across tested concentrations; higher = more toxic; extreme values may be limits of the assay

Row | SMILES | max % larvae (Danio rerio embryo/larva [1]) [%] | max % larvae (Danio rerio embryo/larva [2]) [%] | max % larvae (Danio rerio embryo/larva [3]) [%] | max % larvae (Danio rerio embryo/larva [4]) [%] | max % larvae (Danio rerio embryo/larva [5]) [%] | max % larvae generally abnormal across tested concentrations (Danio rerio embryo/larva [6]) [%] | max % larvae (Danio rerio embryo/larva [7]) [%] | max % larvae (Danio rerio embryo/larva [8]) [%] | max % larvae (Danio rerio embryo/larva [9]) [%]
1 | O=S(=O)(O)C(F)(F)C(F)(F)OC(F)(F)C(F)(F)F [Perfluoro-2-ethoxyethanesulfonic acid] (max tested concentration (log10 uM): 2) | 0 | 8.33 | 0 | 0 | 0 | 8.33 | 0 | 16.7 | 0
2 | FC(F)(F)C(F)(F)C(F)(F)C(F)(F)C(F)(F)C(F)(F)C(F)(F)CCI [1-Iodo-1H,1H,2H,2H-perfluorononane] (max tested concentration (log10 uM): 1.60206) | 0 | 0 | 0 | 0 | 0 | 0 | 0 | 0 | 0
3 | COC(=O)C(F)(F)C(F)(F)C(F)(F)C(F)(F)C(F)(F)F [Methyl perfluorohexanoate] (max tested concentration (log10 uM): 2) | 0 | 0 | 0 | 0 | 0 | 0 | 0 | 0 | 0
4 | O=C(O)C(F)(F)C(F)(F)C(F)(F)C(F)(F)C(F)(F)C(F)(F)C(F)(F)F [Sodium perfluorooctanoate] (max tested concentration (log10 uM): 2) | 0 | 0 | 0 | 0 | 0 | 0 | 0 | 0 | 0
5 | OCC(F)(F)C(F)(F)C(F)(F)F [3:1 Fluorotelomer alcohol] (max tested concentration (log10 uM): 2) | 0 | 8.33 | 0 | 0 | 0 | 8.33 | 8.33 | 0 | 0
6 | C=CC(=O)OCCC(F)(F)C(F)(F)C(F)(F)C(F)(F)C(F)(F)C(F)(F)C(F)(F)C(F)(F)F [2-(Perfluorooctyl)ethyl acrylate] (max tested concentration (log10 uM): 2) | 0 | 0 | 0 | 0 | 0 | 0 | 0 | 0 | 0
7 | NC(=O)C(F)(F)C(F)(F)C(F)(F)C(F)F [Perfluoropentanamide] (max tested concentration (log10 uM): 2) | 0 | 0 | 0 | 0 | 0 | 0 | 0 | 0 | 0
8 | O=C(O)C(F)(F)C(F)(F)C(F)(F)OC(F)(F)F [Perfluoro(4-methoxybutanoic acid)] (max tested concentration (log10 uM): 2) | 0 | 0 | 0 | 0 | 0 | 0 | 0 | 0 | 0
9 | O=S(=O)(O)C(F)(F)C(F)(F)C(F)(F)C(F)(F)F [Perfluorobutanesulfonic acid] (max tested concentration (log10 uM): 2) | 0 | 0 | 0 | 0 | 0 | 0 | 0 | 0 | 0
10 | FC(F)(F)C(F)(F)C(F)(F)C(F)(F)C(F)(F)C(F)(F)C(F)(F)C(F)(F)CCS [2-(Perfluorooctyl)ethanthiol] (max tested concentration (log10 uM): 1.60206) | 0 | 8.33 | 0 | 0 | 0 | 8.33 | 0 | 8.33 | 0
11 | OCC(F)(F)OC(F)(F)C(F)(F)OC(F)(F)C(F)(F)OC(F)(F)CO [1H,1H,11H,11H-Perfluorotetraethylene glycol] (max tested concentration (log10 uM): 1.47712) | 0 | 0 | 0 | 0 | 0 | 0 | 0 | 0 | 0
12 | FC(F)(F)COC(OCC(F)(F)F)OCC(F)(F)F [tris(Trifluoroethoxy)methane] (max tested concentration (log10 uM): 2) | 0 | 0 | 0 | 0 | 0 | 0 | 0 | 0 | 0
13 | O=C(Cl)C(F)(F)C(F)(F)C(F)(F)C(=O)Cl [Hexafluoroglutaryl chloride] (max tested concentration (log10 uM): 2) | 0 | 0 | 0 | 0 | 0 | 0 | 0 | 0 | 0
14 | OCCC(F)(F)C(F)(F)C(F)(F)C(F)(F)C(F)(F)C(F)(F)C(F)(F)C(F)(F)F [2-(Perfluorooctyl)ethanol] (max tested concentration (log10 uM): 2) | 0 | 19.4 | 0 | 0 | 0 | 22.2 | 0 | 44.4 | 8.33
15 | CCN(CCO)S(=O)(=O)C(F)(F)C(F)(F)C(F)(F)C(F)(F)C(F)(F)C(F)(F)C(F)(F)C(F)(F)F [N-Ethyl-N-(2-hydroxyethyl)perfluorooctane sulfonamide] (max tested concentration (log10 uM): 2) | 0 | 8.33 | 0 | 0 | 0 | 8.33 | 0 | 8.33 | 0
16 | FC(F)(F)C(F)(F)C(F)(F)C(F)(F)C(F)(F)C(F)(F)I [Perfluoro-1-iodohexane] (max tested concentration (log10 uM): 2) | 0 | 0 | 0 | 0 | 0 | 0 | 0 | 0 | 0

Row | SMILES | max % larvae (Danio rerio embryo/larva [1]) [%] | max % larvae (Danio rerio embryo/larva [2]) [%] | max % larvae (Danio rerio embryo/larva [3]) [%] | max % larvae (Danio rerio embryo/larva [4]) [%] | max % larvae (Danio rerio embryo/larva [5]) [%] | max % larvae generally abnormal across tested concentrations (Danio rerio embryo/larva [6]) [%] | max % larvae (Danio rerio embryo/larva [7]) [%] | max % larvae (Danio rerio embryo/larva [8]) [%] | max % larvae (Danio rerio embryo/larva [9]) [%]
17 | O=C(O)C(F)(F)C(F)(F)C(F)(F)F [Perfluorobutanoic acid] (max tested concentration (log10 uM): 2) | 20 | 20 | 0 | 0 | 0 | 20 | 0 | 20 | 0
18 | FC(F)(F)C(F)(C(F)(F)F)C(F)(F)C(F)(F)CC1CO1 (stereo not drawn) [3-(Perfluoro-3-methylbutyl)-1,2-propenoxide] (max tested concentration (log10 uM): 1.60206) | 0 | 0 | 0 | 0 | 0 | 0 | 0 | 0 | 0
19 | C=C(C)C(=O)OCCC(F)(F)C(F)(F)C(F)(F)C(F)(F)C(F)(C(F)(F)F)C(F)(F)F [(Perfluoro-5-methylhexyl)ethyl 2-methylprop-2-enoate] (max tested concentration (log10 uM): 2) | 0 | 0 | 0 | 0 | 0 | 0 | 0 | 0 | 0
20 | O=C(O)C(F)(F)C(F)(F)C(F)(F)C(F)(F)C(F)(F)C(F)(F)C(F)(F)C(F)F [9H-Perfluorononanoic acid] (max tested concentration (log10 uM): 2) | 0 | 10.4 | 0 | 0 | 0 | 10.4 | 0 | 16.7 | 2.08
21 | NC(=O)C(F)(F)C(F)(F)C(F)(F)C(F)(F)F [Nonafluoropentanamide] (max tested concentration (log10 uM): 2) | 0 | 0 | 0 | 0 | 0 | 0 | 0 | 0 | 0
22 | O=C(O)C(F)(F)C(F)(F)C(F)(F)OC(F)(C(F)(F)F)C(F)(F)F [Perfluoro-4-isopropoxybutanoic acid] (max tested concentration (log10 uM): 2) | 0 | 0 | 0 | 0 | 0 | 0 | 0 | 0 | 0
23 | O=C(O)C(F)(F)C(F)(F)C(F)F [4H-Perfluorobutanoic acid] (max tested concentration (log10 uM): 2) | 0 | 0 | 0 | 0 | 0 | 0 | 0 | 0 | 0
24 | OCC(F)(F)C(F)(F)C(F)(F)CO [Hexafluoroamylene glycol] (max tested concentration (log10 uM): 2) | 0 | 0 | 0 | 0 | 0 | 0 | 0 | 0 | 0
25 | O=S(=O)(O)C(F)(F)C(F)(F)C(F)(F)C(F)(F)F [Potassium perfluorobutanesulfonate] (max tested concentration (log10 uM): 2) | 0 | 0 | 0 | 0 | 0 | 4.17 | 0 | 8.33 | 0
26 | O=S(=O)(O)CCC(F)(F)C(F)(F)C(F)(F)C(F)(F)F [4:2 Fluorotelomer sulfonic acid] (max tested concentration (log10 uM): 2) | 0 | 0 | 0 | 0 | 0 | 0 | 0 | 0 | 0
27 | O=C(O)C(F)(F)C(F)(F)C(F)(F)C(=O)O [Perfluoropentanedioic acid] (max tested concentration (log10 uM): 2) | 0 | 0 | 0 | 0 | 0 | 0 | 0 | 0 | 0
28 | CO[Si](C)(CCC(F)(F)C(F)(F)C(F)(F)C(F)(F)C(F)(F)C(F)(F)F)OC [Dimethoxymethyl((perfluorohexyl)ethyl)silane] (max tested concentration (log10 uM): 1.60206) | 0 | 0 | 0 | 0 | 0 | 0 | 0 | 0 | 0
29 | O=C(Cl)C(F)(F)C(F)(F)C(F)(F)C(F)(F)C(F)(F)C(F)(F)C(F)(F)F [Pentadecafluorooctanoyl chloride] (max tested concentration (log10 uM): 2) | 16.7 | 16.7 | 12.5 | 12.5 | 0 | 16.7 | 16.7 | 16.7 | 12.5
30 | FC(F)(F)C(F)(F)C(F)(F)CI [Heptafluorobutyl iodide] (max tested concentration (log10 uM): 2) | 0 | 0 | 0 | 0 | 0 | 0 | 0 | 0 | 0
31 | OCCC(F)(F)C(F)(F)C(F)(F)C(F)(F)F [4:2 Fluorotelomer alcohol] (max tested concentration (log10 uM): 2) | 0 | 4.17 | 0 | 0 | 0 | 4.17 | 0 | 0 | 0
32 | FC(F)(F)C(F)(F)C(F)(F)C(F)(F)C(F)(F)C(F)(F)CCS [2-(Perfluorohexyl)ethanethiol] (max tested concentration (log10 uM): 1.60206) | 0 | 8.33 | 0 | 0 | 0 | 8.33 | 0 | 16.7 | 0
